Measurements as given in US12139520B2 (priority 2020, dated 2024).
pEC50: −log10 of the molar value. Bridge positions count the residues as written; N and C are the ends. Square brackets hold non-standard residues; d marks the D form. Peptide text beside a SMILES is read from it. Hyp = O=C(O)[C@@H]1C[C@@H](O)CN1; Cit = NC(=O)NCCC[C@H](N)C(=O)O

Legend:
[1] = Physical stability of peptide analogues (Thioflavin T fibrillation); type: physicochemical; settings: maximum ThT signal normalized between hAMY maximum and buffer background; 40° C., shaking, four days; pH 7 per table title
How it was run: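 ThT fluorescence (450 nm excitation, 480 nm emission; 4 μM dye) was read every 10 min over four days at 40° C under 700 rpm shaking stress, after 1 h in pH 4 acetate or pH 7 phosphate (50 mM). Peak smoothed signal expressed as percent, scaled between buffer background and hAMY maximum.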

[2] = biological target: hAM1 receptor (Homo sapiens, UniProt O60895+Q16602); assay: cAMP assay for in vitro receptor activation, hAM1-R; type: cell-based; settings: cAMP assay, hAM1 receptor; read-out: hAM1R EC50
How it was run: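 A subcloned monoclonal line stably expressing hAM1 receptor is thawed and plated at 8000 cells/well. The assay buffer is DPBS with 0.05% casein and 0.5 mM IBMX, and receptor activation is followed by cAMP levels.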

[3] = biological target: T1, hAMY3 receptor (Homo sapiens, UniProt O60896+P30988); assay: cAMP assay for in vitro receptor activation, hAMY3-R; type: cell-based; settings: cAMP assay, hAMY3 receptor; read-out: hAMY3R EC50
T1 sequence (P30988 25-474): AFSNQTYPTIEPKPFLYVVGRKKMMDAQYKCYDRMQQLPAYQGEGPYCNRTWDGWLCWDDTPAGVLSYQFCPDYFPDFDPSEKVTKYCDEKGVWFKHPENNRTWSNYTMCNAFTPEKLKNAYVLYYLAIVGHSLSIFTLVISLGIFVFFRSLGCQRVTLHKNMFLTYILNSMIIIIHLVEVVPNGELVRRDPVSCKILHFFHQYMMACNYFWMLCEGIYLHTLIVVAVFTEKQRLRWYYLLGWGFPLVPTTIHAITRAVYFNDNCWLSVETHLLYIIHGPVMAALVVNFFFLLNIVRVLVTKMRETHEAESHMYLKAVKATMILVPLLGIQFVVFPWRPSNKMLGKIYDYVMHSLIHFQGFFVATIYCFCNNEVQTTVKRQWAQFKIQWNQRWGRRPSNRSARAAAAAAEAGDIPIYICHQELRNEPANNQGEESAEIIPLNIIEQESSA
T1 sequence (O60896 24-148 partner): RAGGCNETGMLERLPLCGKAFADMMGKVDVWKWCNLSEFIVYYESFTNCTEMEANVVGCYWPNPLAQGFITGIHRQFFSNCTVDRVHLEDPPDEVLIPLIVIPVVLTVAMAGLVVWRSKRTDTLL
How it was run: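 Read-out is TR-FRET cAMP signal, recorded one hour after reagent addition, following 30 min room-temperature stimulation of stable hAMY3 cells with graded compound doses in casein/IBMX (0.5 mM) buffer.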

hAM1 receptor, sequence (Q16602 23-461): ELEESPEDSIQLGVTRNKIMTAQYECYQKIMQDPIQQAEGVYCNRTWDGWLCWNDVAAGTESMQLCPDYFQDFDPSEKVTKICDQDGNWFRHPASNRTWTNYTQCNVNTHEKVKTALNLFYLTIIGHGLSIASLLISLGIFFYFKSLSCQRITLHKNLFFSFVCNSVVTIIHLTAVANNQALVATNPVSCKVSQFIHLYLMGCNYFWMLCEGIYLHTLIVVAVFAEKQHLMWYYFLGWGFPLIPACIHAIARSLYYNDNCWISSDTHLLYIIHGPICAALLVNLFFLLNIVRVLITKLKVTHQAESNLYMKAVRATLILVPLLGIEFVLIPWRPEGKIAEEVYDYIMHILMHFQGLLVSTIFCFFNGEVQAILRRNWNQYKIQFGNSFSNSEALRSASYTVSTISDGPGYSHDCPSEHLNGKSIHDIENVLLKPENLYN
hAM1 receptor, sequence (O60895 43-175 partner): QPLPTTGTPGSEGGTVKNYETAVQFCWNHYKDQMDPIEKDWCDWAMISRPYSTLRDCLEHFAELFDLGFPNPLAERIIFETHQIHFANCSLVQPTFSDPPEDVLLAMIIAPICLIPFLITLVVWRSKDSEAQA

Max ThT signal (%) [1] [%] | pEC50 [2] | pEC50 [3] | SMILES
17.400 | < 5.30 | 10.04 | CC[C@H](C)[C@H](NC(=O)[C@H](CCC(N)=O)NC(=O)[C@H](Cc1c[nH]cn1)NC(=O)[C@H](C)NC(=O)[C@H](CC(C)C)NC(=O)[C@H](Cc1c[nH]c2ccccc12)NC(=O)[C@H](CCC(N)=O)NC(=O)[C@@H](NC(=O)[C@@H](NC(=O)[C@@H]1CSSC[C@H](NC(=O)CN)C(=O)N[C@@H](CCCNC(=N)N)C(=O)N[C@@H]([C@@H](C)O)C(=O)NCC(=O)N[C@@H]([C@@H](C)O)C(=O)N1)[C@@H](C)O)C(C)C)C(=O)N[C@@H](Cc1ccc(O)cc1)C(=O)N[C@@H](CCC(N)=O)C(=O)N[C@@H](Cc1ccccc1)C(=O)N[C@H](C(=O)N[C@@H](CC(=O)O)C(=O)N[C@@H](CCCCN)C(=O)N[C@@H](CC(=O)O)C(=O)N[C@@H](CCCCN)C(=O)N[C@@H](CC(=O)O)C(=O)N[C@@H](CC(N)=O)C(=O)N[C@H](C(=O)N[C@@H](C)C(=O)N1CCC[C@H]1C(=O)N[C@@H](CCCNC(=N)N)C(=O)N[C@H](C(=O)N[C@@H](CCCCN)C(=O)N[C@H](C(=O)NCC(=O)N1CCC[C@H]1C(=O)N[C@@H](CCC(N)=O)C(=O)NCC(=O)N[C@@H](Cc1ccc(O)cc1)C(N)=O)C(C)C)[C@@H](C)O)C(C)C)[C@@H](C)O [compound 354] (H-GCRTGTCTVQWLAHQIYQFTDKDKDNVAPRTKVGPQGY-NH2; disulfide 2-7; N-terminus assumed)
12.050 | < 5.30 | 11.22 | CC[C@H](C)[C@H](NC(=O)[C@H](CCC(N)=O)NC(=O)[C@H](Cc1c[nH]cn1)NC(=O)[C@H](C)NC(=O)[C@H](CC(C)C)NC(=O)[C@H](CCCNC(N)=O)NC(=O)[C@H](CCC(N)=O)NC(=O)[C@@H](NC(=O)[C@@H](NC(=O)[C@@H]1CSSC[C@H](NC(=O)[C@@H](N)CCCCN)C(=O)N[C@@H](CC(N)=O)C(=O)N[C@@H]([C@@H](C)O)C(=O)N[C@@H](C)C(=O)N[C@@H]([C@@H](C)O)C(=O)N1)[C@@H](C)O)C(C)C)C(=O)N[C@@H](Cc1ccc(O)cc1)C(=O)N[C@@H](CCC(N)=O)C(=O)N[C@@H](Cc1ccccc1)C(=O)N[C@H](C(=O)N[C@@H](CC(=O)O)C(=O)N[C@@H](CCCCN)C(=O)N[C@@H](CC(=O)O)C(=O)N[C@@H](CCCCN)C(=O)N[C@@H](CC(=O)O)C(=O)N[C@@H](CC(N)=O)C(=O)N[C@H](C(=O)N1CCC[C@H]1C(=O)N1CCC[C@H]1C(=O)N[C@H](C(=O)N[C@@H](CC(N)=O)C(=O)N[C@H](C(=O)NCC(=O)N[C@@H](CO)C(=O)N[C@@H](CC(N)=O)C(=O)NCC(=O)N1C[C@H](O)C[C@H]1C(N)=O)C(C)C)[C@@H](C)O)C(C)C)[C@@H](C)O [compound 254] (H-KCNTATCTVQ[Cit]LAHQIYQFTDKDKDNVPPTNVGSNG[Hyp]-NH2; disulfide 2-7)
6.300 | < 5.30 | 11.00 | CC[C@H](C)[C@H](NC(=O)[C@H](CCC(N)=O)NC(=O)[C@H](Cc1c[nH]cn1)NC(=O)[C@H](C)NC(=O)[C@H](CC(C)C)NC(=O)[C@H](CCCNC(=N)N)NC(=O)[C@H](CCC(N)=O)NC(=O)[C@@H](NC(=O)[C@@H](NC(=O)[C@@H]1CSSC[C@H](NC(=O)[C@@H](N)CCCCN)C(=O)N[C@@H](CC(N)=O)C(=O)N[C@@H]([C@@H](C)O)C(=O)N[C@@H](C)C(=O)N[C@@H]([C@@H](C)O)C(=O)N1)[C@@H](C)O)C(C)C)C(=O)N[C@@H](Cc1ccc(O)cc1)C(=O)N[C@@H](C)C(=O)N[C@@H](Cc1ccccc1)C(=O)N[C@H](C(=O)N[C@@H](CC(=O)O)C(=O)N[C@@H](CCCCN)C(=O)N[C@@H](CC(=O)O)C(=O)N[C@@H](CCCCN)C(=O)N[C@@H](CC(=O)O)C(=O)N[C@@H](CC(N)=O)C(=O)N[C@H](C(=O)N[C@@H](C)C(=O)N1CCC[C@H]1C(=O)N1CCC[C@H]1C(=O)N[C@H](C(=O)N[C@@H](CC(N)=O)C(=O)N[C@H](C(=O)NCC(=O)N[C@@H](CO)C(=O)N[C@@H](CC(N)=O)C(=O)NCC(=O)N1C[C@H](O)C[C@H]1C(N)=O)C(C)C)[C@@H](C)O)C(C)C)[C@@H](C)O [compound 42] (H-KCNTATCTVQRLAHQIYAFTDKDKDNVAPPTNVGSNG[Hyp]-NH2; disulfide 2-7; N-terminus assumed)
3.600 | < 5.30 | 10.05 | CC(C)C[C@H](NC(=O)[C@H](Cc1c[nH]c2ccccc12)NC(=O)[C@H](CCC(N)=O)NC(=O)[C@@H](NC(=O)[C@@H](NC(=O)[C@@H]1CSSC[C@H](NC(=O)CN)C(=O)N[C@@H](CCCNC(=N)N)C(=O)N[C@@H](Cc2ccccc2)C(=O)NCC(=O)N[C@@H]([C@@H](C)O)C(=O)N1)[C@@H](C)O)C(C)C)C(=O)N[C@@H](C)C(=O)N[C@@H](Cc1c[nH]cn1)C(=O)N[C@@H](Cc1ccccc1)C(=O)N[C@@H](CC(C)C)C(=O)N[C@@H](Cc1ccc(O)cc1)C(=O)N[C@@H](CCC(N)=O)C(=O)N[C@@H](Cc1ccccc1)C(=O)N[C@H](C(=O)N[C@@H](CC(=O)O)C(=O)N[C@@H](CCCCN)C(=O)N[C@@H](CC(=O)O)C(=O)N[C@@H](CCCCN)C(=O)N[C@@H](CC(=O)O)C(=O)N[C@@H](CC(N)=O)C(=O)N[C@H](C(=O)N[C@@H](C)C(=O)N1CCC[C@H]1C(=O)N[C@@H](CCCNC(=N)N)C(=O)N[C@H](C(=O)N[C@@H](CC(N)=O)C(=O)N[C@H](C(=O)NCC(=O)N[C@@H](CO)C(=O)N[C@@H](CC(N)=O)C(=O)N[C@H](C(=O)N[C@@H](Cc1ccc(O)cc1)C(N)=O)[C@@H](C)O)C(C)C)[C@@H](C)O)C(C)C)[C@@H](C)O [compound 327] (H-GCRFGTCTVQWLAHFLYQFTDKDKDNVAPRTNVGSNTY-NH2; disulfide 2-7; N-terminus assumed)
14.900 | < 5.30 | 11.05 | CC[C@H](C)[C@H](NC(=O)[C@H](CCC(N)=O)NC(=O)[C@H](Cc1c[nH]cn1)NC(=O)[C@H](C)NC(=O)[C@H](CC(C)C)NC(=O)[C@H](Cc1c[nH]c2ccccc12)NC(=O)[C@H](CCC(N)=O)NC(=O)[C@@H](NC(=O)[C@@H](NC(=O)[C@@H]1CSSC[C@H](NC(=O)[C@@H](N)CCCCN)C(=O)N[C@@H](CC(N)=O)C(=O)N[C@@H]([C@@H](C)O)C(=O)N[C@@H](C)C(=O)N[C@@H]([C@@H](C)O)C(=O)N1)[C@@H](C)O)C(C)C)C(=O)N[C@@H](Cc1ccc(O)cc1)C(=O)N[C@@H](CCC(N)=O)C(=O)N[C@@H](Cc1ccccc1)C(=O)N[C@H](C(=O)N[C@@H](CC(=O)O)C(=O)N[C@@H](CCCCN)C(=O)N[C@@H](CC(=O)O)C(=O)N[C@@H](CCCCN)C(=O)N[C@@H](CC(=O)O)C(=O)N[C@@H](CC(N)=O)C(=O)N[C@H](C(=O)N1CCC[C@H]1C(=O)N1CCC[C@H]1C(=O)N[C@H](C(=O)N[C@@H](CC(N)=O)C(=O)N[C@H](C(=O)NCC(=O)N[C@@H](CO)C(=O)N[C@@H](CC(N)=O)C(=O)NCC(=O)N1C[C@H](O)C[C@H]1C(N)=O)C(C)C)[C@@H](C)O)C(C)C)[C@@H](C)O [compound 318] (H-KCNTATCTVQWLAHQIYQFTDKDKDNVPPTNVGSNG[Hyp]-NH2; disulfide 2-7; N-terminus assumed)
2.350 | < 5.30 | 10.28 | CC(C)C[C@H](NC(=O)[C@H](Cc1c[nH]c2ccccc12)NC(=O)[C@H](CCC(N)=O)NC(=O)[C@@H](NC(=O)[C@@H](NC(=O)[C@@H]1CSSC[C@H](NC(=O)CN)C(=O)N[C@@H](CCCNC(=N)N)C(=O)N[C@@H](Cc2ccccc2)C(=O)NCC(=O)N[C@@H]([C@@H](C)O)C(=O)N1)[C@@H](C)O)C(C)C)C(=O)N[C@@H](C)C(=O)N[C@@H](Cc1c[nH]cn1)C(=O)N[C@@H](Cc1ccccc1)C(=O)N[C@@H](CC(C)C)C(=O)N[C@@H](Cc1ccc(O)cc1)C(=O)N[C@@H](CCC(N)=O)C(=O)N[C@@H](Cc1ccccc1)C(=O)N[C@H](C(=O)N[C@@H](CC(=O)O)C(=O)N[C@@H](CCCCN)C(=O)N[C@@H](CC(=O)O)C(=O)N[C@@H](CCCCN)C(=O)N[C@@H](CC(=O)O)C(=O)N[C@@H](CC(N)=O)C(=O)N[C@H](C(=O)N[C@@H](C)C(=O)N1CCC[C@H]1C(=O)N[C@@H](CCCNC(=N)N)C(=O)N[C@H](C(=O)N[C@@H](CC(N)=O)C(=O)N[C@H](C(=O)NCC(=O)N1CCC[C@H]1C(=O)N[C@@H](CCC(N)=O)C(=O)NCC(=O)N[C@@H](Cc1ccc(O)cc1)C(N)=O)C(C)C)[C@@H](C)O)C(C)C)[C@@H](C)O [compound 326] (H-GCRFGTCTVQWLAHFLYQFTDKDKDNVAPRTNVGPQGY-NH2; disulfide 2-7; N-terminus assumed)
